Laboratory results from PubChem BioAssay (NCI).
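Each compound was tested at five concentrations against cells in 96-well plates for 48 hours. TGI: concentration producing complete growth inhibition.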

Experiments:
Test in all cases: growth of human tumour cells (NCI), 48 h
SK-MEL-2 melanoma = tested on: SK-MEL-2 melanoma
HOP-62 NSCLC = tested on: HOP-62 NSCLC
COLO 205 colon = tested on: COLO 205 colon
SF-539 CNS = tested on: SF-539 CNS
LOX IMVI melanoma = tested on: LOX IMVI melanoma
HS 578T breast = tested on: HS 578T breast
OVCAR-4 ovarian = tested on: OVCAR-4 ovarian
UACC-62 melanoma = tested on: UACC-62 melanoma
SF-295 CNS = tested on: SF-295 CNS
T-47D breast = tested on: T-47D breast

Row | Structure (SMILES) | TGI (SK-MEL-2 melanoma) | TGI (HOP-62 NSCLC) | TGI (COLO 205 colon) | TGI (SF-539 CNS) | TGI (LOX IMVI melanoma) | TGI (HS 578T breast) | TGI (OVCAR-4 ovarian) | TGI (UACC-62 melanoma) | TGI (SF-295 CNS) | TGI (T-47D breast)
1 | CC(C)(C)c1cc(C2=NN(c3ccccc3)C(c3ccccc3)C2)cc(C(C)(C)C)c1O (stereo not given) | > 100 µM | > 100 µM | > 100 µM | > 100 µM | > 100 µM | > 100 µM | > 100 µM | > 100 µM | > 100 µM | > 100 µM
2 | N#CCCN(CCC#N)c1ccc(/C=C2\N=C(c3ccccc3)N(NC(N)=S)C2=O)cc1 | > 100 µM | > 100 µM | > 100 µM | > 100 µM | > 100 µM | > 100 µM | > 100 µM | > 100 µM | > 100 µM | > 100 µM
3 | COC1(OC)CC(CO)(CNc2cc(Cl)nc(N)n2)C1 | > 100 µM | > 100 µM | > 100 µM | > 100 µM | > 100 µM | > 100 µM | > 100 µM | > 100 µM | > 100 µM | > 100 µM
4 | C#CC1(O)C(COP(=O)(O)OCC2OC(n3ccc(NCCCCCCCCCCCCCCCCCC)nc3=O)C(O)C2O)OC(n2ccc(N)nc2=O)C1O (stereo not given) | 5.3 µM | 46.7 µM | > 32.9 µM | 34.5 µM | 11.1 µM | 45.2 µM | 34.8 µM | 10.3 µM | 18.6 µM | > 38.4 µM
